Laboratory results taken from US20250144067A1, “PERSONALIZED STARVATION THERAPY FOR CANCER” (Faeth Therapeutics, Inc., priority 2021, published 2025).
Counter-ions that a name gives are not always drawn. Like-named read-outs stand apart in the source and are kept apart here.

Experiments:
[1] = tested on: NCI-H292 lung cancer cells; assay: FDA drug screening, complete media vs cholesterol-free media without statin (TABLE 1); format: cell-based, human
[2] = tested on: NCI-H292 lung cancer cells; assay: FDA drug screening, complete media vs cholesterol-free media with simvastatin (TABLE 2); format: cell-based, human
[3] = Complete minus Cholesterol-free, >0 enhanced anti-cancer activity, about 0 neutral, <0 antagonist
[4] = NCI-H292 cells, cholesterol-free media without statin, FDA drug library screen
[5] = NCI-H292 cells, complete media, FDA drug library screen
[6] = NCI-H292 cells, FDA drug library screen, cholesterol-free media with simvastatin 0.04 μM
[7] = NCI-H292 cells, FDA drug library screen, complete media
[8] = complete media vs cholesterol-free media + simvastatin (0.04 μM), >0 enhanced anti-cancer activity, about 0 neutral, <0 antagonist
[9] = NCI-H292 cells, cholesterol-free media without statin
[10] = complete vs cholesterol-free media, greater than 0 enhanced anti-cancer activity, about 0 neutral, below 0 antagonists
[11] = Complete minus Cholesterol-free, greater than 0 enhanced anti-cancer activity, about 0 neutral, below 0 antagonists
[12] = NCI-H292 cells in cholesterol-free media without statin
[13] = NCI-H292 cells in complete media
[14] = NCI-H292 cells, drug in cholesterol-free media with simvastatin 0.04 μM
[15] = NCI-H292 cells, drug in complete media
[16] = NCI-H292 cells, FDA library drug in cholesterol-free media with simvastatin 0.04 μM
[17] = NCI-H292 cells, FDA library drug in complete media
[18] = complete media minus cholesterol-free media + simvastatin, >0 enhanced anti-cancer activity, about 0 neutral, <0 antagonist
[19] = Complete minus Cholesterol-free, […]
[20] = complete media minus cholesterol-free media + simvastatin, […]
[21] = NCI-H292 cells, FDA drug library screen, cholesterol-free media without statin
[22] = NCI-H292 cells, cholesterol-free media with simvastatin 0.04 μM, FDA drug library screen (TABLE 2)
[23] = NCI-H292 cells, complete media, FDA drug library screen (TABLE 2)
[24] = complete media minus cholesterol-free media + simvastatin (0.04 μM), […]
[25] = complete media minus cholesterol-free media + simvastatin (0.04 μM), >0 enhanced anti-cancer activity, about 0 neutral, <0 antagonist
[26] = NCI-H292 cells, cholesterol-free media with simvastatin 0.04 μM, cell growth value in FDA drug screen
[27] = NCI-H292 cells, complete media, cell growth value in FDA drug screen
[28] = Complete minus Cholesterol-free, greater than 0 enhanced anti-cancer activity, about 0 neutral, below 0 antagonist

Molecule: CNC(=O)c1c(C)oc2cc(Oc3ncnc4cc(OC)c(OC)cc34)ccc12 [Fruquintinib]
- Difference [1, 3]: 0.02
- Cholesterol-free [1, 4]: 0.9702
- Complete [1, 5]: 0.994
- Cholesterol-free media + simvastatin (0.04 μM) [2, 6]: 1.198
- Complete Media [2, 7]: 1.059
- Difference [2, 8]: −0.14

Molecule: Cc1cc(Nc2ncc(Cl)c(Nc3ccccc3S(=O)(=O)C(C)C)n2)c(OC(C)C)cc1C1CCNCC1 [Ceritinib dihydrochloride]
- Difference [1, 3]: −0.02
- Cholesterol-free [1, 4]: 0.3644
- Complete [1, 5]: 0.3489
- Cholesterol-free media + simvastatin (0.04 μM) [2, 6]: 0.1666
- Complete Media [2, 7]: 0.03677
- Difference [2, 8]: −0.13

Molecule: CC(=O)[C@H]1CC[C@H]2[C@@H]3CCC4=CC(=O)CC[C@]4(C)[C@H]3CC[C@]12C [Progesterone]
- Cholesterol-free [1, 9]: 1.057
- Complete ([1]; NCI-H292 cells, complete media): 0.6641
- Difference [1, 10]: −0.39
- Cholesterol-free media + simvastatin (0.04 μM) [2, 6]: 1.054
- Complete Media [2, 7]: 0.9232
- Difference [2, 8]: −0.13

Molecule: O=C1CCC(N2C(=O)c3ccccc3C2=O)C(=O)N1 (centres unmarked) [Thalidomide]
- Difference [1, 11]: −0.92
- Cholesterol-free [1, 12]: 1.865
- Complete [1, 13]: 0.9496
- Cholesterol-free media + simvastatin (0.04 μM) [2, 14]: 1.184
- Complete Media [2, 15]: 1.013
- Difference [2, 8]: −0.17

Molecule: CNCCCN1c2ccccc2CCc2ccccc21 [Desipramine hydrochloride]
- Difference [1, 3]: −0.04
- Cholesterol-free [1, 4]: 1.05
- Complete [1, 5]: 1.006
- Cholesterol-free media + simvastatin (0.04 μM) [2, 16]: 2.126
- Complete Media [2, 17]: 1.494
- Difference [2, 8]: −0.63

Molecule: CCOC(=O)c1c(CSc2ccccc2)n(C)c2cc(Br)c(O)c(CN(C)C)c12 [Umifenovir (hydrochloride)]
- Cholesterol-free [1, 9]: 1.088
- Complete ([1]; NCI-H292 cells, complete media): 0.7625
- Difference [1, 10]: −0.33
- Cholesterol-free media + simvastatin (0.04 μM) [2, 6]: 0.9009
- Complete Media [2, 7]: 1.225
- Difference [2, 18]: 0.32

Molecule: CC(=O)OCC(=O)[C@@]1(O)CC[C@H]2[C@@H]3CCC4=CC(=O)CC[C@]4(C)[C@H]3[C@@H](O)C[C@@]21C [Hydrocortisone acetate]
- Difference [1, 3]: −0.20
- Cholesterol-free [1, 9]: 0.8261
- Complete ([1]; NCI-H292 cells, complete media): 0.6264
- Cholesterol-free media + simvastatin (0.04 μM) [2, 6]: 0.7827
- Complete Media [2, 7]: 0.63
- Difference [2, 8]: −0.15

Molecule: CCC1(C)CC(=O)NC(=O)C1 [Bemegride]
- Difference [1, 19]: −0.76
- Cholesterol-free [1, 12]: 1.658
- Complete [1, 13]: 0.894
- Cholesterol-free media + simvastatin (0.04 μM) [2, 6]: 0.8627
- Complete Media [2, 7]: 1.013
- Difference [2, 20]: 0.15

Molecule: CO/N=C(\C(=O)N[C@@H]1C(=O)N2C(C(=O)[O-])=C(CSc3nc(C)c(CC(=O)[O-])s3)CS[C@H]12)c1csc(N)n1.[Na+].[Na+] [Cefodizime (sodium)]
- Difference [1, 3]: 0.06
- Cholesterol-free [1, 4]: 1.009
- Complete [1, 5]: 1.069
- Cholesterol-free media + simvastatin (0.04 μM) [2, 14]: 1.29
- Complete Media [2, 15]: 1.088
- Difference [2, 8]: −0.20

Molecule: O=NN(CCCl)C(=O)NC1CCCCC1 [Lomustine]
- Difference [1, 19]: −0.14
- Cholesterol-free [1, 21]: 1.107
- Complete [1, 7]: 0.965
- Cholesterol-free media + simvastatin (0.04 μM) [2, 22]: 0.7579
- Complete Media [2, 23]: 0.7602
- Difference [2, 24]: 0.00

Molecule: O=C(O)c1ccccc1OP(=O)(O)O [2-(Phosphonooxy)benzoic acid]
- Difference [1, 11]: −0.51
- Cholesterol-free [1, 12]: 1.515
- Complete [1, 13]: 1.005
- Cholesterol-free media + simvastatin (0.04 μM) [2, 14]: 1.147
- Complete Media [2, 15]: 0.9779
- Difference [2, 8]: −0.17

Molecule: Nc1nc2c(ncn2COCCO)c(=O)[nH]1 [Acyclovir]
- Cholesterol-free [1, 4]: 0.843
- Complete [1, 5]: 1.434
- Difference ([1]; complete vs cholesterol-free media, >0 enhanced anti-cancer activity, about 0 neutral, <0 antagonist): 0.59
- Cholesterol-free media + simvastatin (0.04 μM) [2, 6]: 1.866
- Complete Media [2, 7]: 1.782
- Difference [2, 8]: −0.08

Molecule: Cc1[nH]c(=O)c(C#N)cc1-c1ccc2nccn2c1 [Olprinone (Hydrochloride)]
- Difference [1, 3]: −0.27
- Cholesterol-free [1, 9]: 1.142
- Complete ([1]; NCI-H292 cells, complete media): 0.8745
- Cholesterol-free media + simvastatin (0.04 μM) [2, 22]: 1.653
- Complete Media [2, 23]: 1.64
- Difference [2, 25]: −0.01

Molecule: N=C(N)NCCCC(N)C(=O)O (racemic) [DL-Arginine]
- Cholesterol-free [1]: 1.525
- Complete [1]: 1.476
- Difference [1]: −0.05
- Cholesterol-free media + simvastatin (0.04 μM) [2]: 0.9889
- Complete Media [2]: 0.9776
- Difference [2]: −0.01

Molecule: NCCCC[C@H](N)C(=O)O [L-Lysine]
- Difference [1, 19]: −0.24
- Cholesterol-free [1, 9]: 1.096
- Complete ([1]; NCI-H292 cells, complete media): 0.8592
- Cholesterol-free media + simvastatin (0.04 μM) [2, 16]: 1.021
- Complete Media [2, 17]: 0.7295
- Difference ([2]; complete media vs cholesterol-free media + simvastatin (0.04 μM), […]): −0.29

Molecule: (−)-Huperzine A
- Difference [1, 19]: 0.00
- Cholesterol-free [1, 4]: 1.621
- Complete [1, 5]: 1.617
- Cholesterol-free media + simvastatin (0.04 μM) [2, 22]: 1.198
- Complete Media [2, 23]: 1.208
- Difference [2, 24]: 0.01

Molecule: Nc1ccc(S(=O)(=O)Nc2nccs2)cc1 [Sulfathiazole (sodium)]
- Difference [1, 3]: −0.22
- Cholesterol-free [1, 9]: 1.264
- Complete ([1]; NCI-H292 cells, complete media): 1.047
- Cholesterol-free media + simvastatin (0.04 μM) [2, 16]: 1.852
- Complete Media [2, 17]: 1.04
- Difference [2, 8]: −0.81

Molecule: Medroxyprogesterone
- Difference [1, 19]: −0.03
- Complete [1, 5]: 0.9783
- Cholesterol-free media + simvastatin (0.04 μM) [2, 6]: 0.8858
- Complete Media [2, 7]: 1.173
- Difference [2, 20]: 0.29

Molecule: CC(=O)Nc1cccc(-n2c(=O)n(C3CC3)c(=O)c3c(Nc4ccc(I)cc4F)n(C)c(=O)c(C)c32)c1 [Trametinib]
- Difference [1, 3]: −0.06
- Cholesterol-free [1, 4]: 0.4164
- Complete [1, 5]: 0.3595
- Cholesterol-free media + simvastatin (0.04 μM) [2, 26]: 0.2423
- Complete Media [2, 27]: 0.2586
- Difference [2, 18]: 0.02

Molecule: COC(=O)C1=C(C)NC(C)=C(C(=O)OC(C)(C)CN(C)CCC(c2ccccc2)c2ccccc2)C1c1cccc([N+](=O)[O-])c1 (centres unmarked) [Lercanidipine (hydrochloride)]
- Difference [1, 28]: −0.18
- Cholesterol-free [1, 21]: 0.8895
- Complete [1, 7]: 0.7061
- Cholesterol-free media + simvastatin (0.04 μM) [2, 26]: 0.8086
- Complete Media [2, 27]: 0.8565
- Difference [2, 18]: 0.05

Molecule: C[N+](C)(CC(=O)Nc1ccccc1)CC(=O)Nc1ccccc1.[Cl-] [Carcainium (chloride)]
- Difference [1, 19]: 0.01
- Cholesterol-free [1, 4]: 0.9985
- Complete [1, 5]: 1.004
- Cholesterol-free media + simvastatin (0.04 μM) ([2]; NCI-H292 cells, cholesterol-free media with simvastatin 0.04 μM, […]): 1.019
- Complete Media ([2]; NCI-H292 cells, complete media, […]): 1.155
- Difference [2, 20]: 0.14

Molecule: O=c1ccc2ccc(O)c(O)c2o1 [Daphnetin]
- Difference [1, 3]: −0.27
- Cholesterol-free [1, 9]: 1.207
- Complete ([1]; NCI-H292 cells, complete media): 0.9359
- Cholesterol-free media + simvastatin (0.04 μM) [2, 14]: 1.124
- Complete Media [2, 15]: 0.9139
- Difference [2, 8]: −0.21

Molecule: CNC(=O)c1cc(Oc2ccc(NC(=O)Nc3ccc(Cl)c(C(F)(F)F)c3)c(F)c2)ccn1 [Regorafenib (Hydrochloride)]
- Difference [1, 3]: 0.04
- Cholesterol-free [1, 4]: 0.8297
- Complete [1, 5]: 0.8736
- Cholesterol-free media + simvastatin (0.04 μM) [2, 22]: 0.9433
- Complete Media [2, 23]: 0.9026
- Difference [2, 25]: −0.04

Molecule: CN1CCC2=C(C1)c1ccccc1Cc1ccccc12 [Setiptiline]
- Difference [1, 28]: −0.08
- Cholesterol-free [1, 21]: 1.103
- Complete [1, 7]: 1.024
- Cholesterol-free media + simvastatin (0.04 μM) [2, 14]: 1.048
- Complete Media [2, 15]: 0.8546
- Difference [2, 8]: −0.19

Molecule: CO/N=C(\C(=O)N[C@@H]1C(=O)N2C(C(=O)OC(C)OC(C)=O)=C(COC(N)=O)CS[C@H]12)c1ccco1 (some centres unmarked) [Cefuroxime axetil]
- Difference [1, 28]: −0.18
- Cholesterol-free [1, 21]: 0.8605
- Complete [1, 7]: 0.6767
- Cholesterol-free media + simvastatin (0.04 μM) [2, 26]: 1.05
- Complete Media [2, 27]: 1.073
- Difference [2, 18]: 0.02

Molecule: Cc1cc(NS(=O)(=O)c2ccc(N)cc2)no1 [Sulfamethoxazole]
- Cholesterol-free [1, 9]: 1.301
- Complete ([1]; NCI-H292 cells, complete media): 0.8647
- Difference [1, 10]: −0.44
- Cholesterol-free media + simvastatin (0.04 μM) [2, 14]: 1.223
- Complete Media [2, 15]: 1.051
- Difference [2, 8]: −0.17

Molecule: C[C@@H]1C[C@H]2[C@@H]3C[C@H](F)C4=CC(=O)C=C[C@]4(C)[C@@]3(F)[C@@H](O)C[C@]2(C)[C@@]1(OC(=O)c1ccco1)C(=O)SCF [Fluticasone furoate]
- Cholesterol-free [1, 9]: 1.047
- Complete ([1]; NCI-H292 cells, complete media): 0.6144
- Difference [1, 10]: −0.43
- Cholesterol-free media + simvastatin (0.04 μM) [2, 26]: 0.7104
- Complete Media [2, 27]: 0.7486
- Difference [2, 18]: 0.04

Molecule: CCCCN(CCCC)CCC(O)c1cc2c(Cl)cc(Cl)cc2c2cc(C(F)(F)F)ccc12 (centres unmarked) [Halofantrine hydrochloride]
- Cholesterol-free [1, 9]: 1.176
- Complete ([1]; NCI-H292 cells, complete media): 0.7446
- Difference [1, 10]: −0.43
- Cholesterol-free media + simvastatin (0.04 μM) [2, 16]: 1.233
- Complete Media [2, 17]: 0.9282
- Difference [2, 8]: −0.30
